This note sets out measurements from patent US20090069215A1, “Acylated Single Chain Insulin” (Novo Nordisk A/S, priority 2006, published 2009).

The target in the first assay is human insulin receptor (Homo sapiens, UniProt P06213). As to the kind of experiment: Insulin receptor binding, SPA antibody capture assay (assay (I)). The following applies: recombinant human insulin receptor - exon 11, A14 Tyr[125I]-human insulin tracer, human insulin = 100%. The method, then: Insulin Receptor Binding of the Acylated, Single-Chain Insulin
Chain of human insulin receptor (P06213 28-746 isoform P06213-2 limits assumed): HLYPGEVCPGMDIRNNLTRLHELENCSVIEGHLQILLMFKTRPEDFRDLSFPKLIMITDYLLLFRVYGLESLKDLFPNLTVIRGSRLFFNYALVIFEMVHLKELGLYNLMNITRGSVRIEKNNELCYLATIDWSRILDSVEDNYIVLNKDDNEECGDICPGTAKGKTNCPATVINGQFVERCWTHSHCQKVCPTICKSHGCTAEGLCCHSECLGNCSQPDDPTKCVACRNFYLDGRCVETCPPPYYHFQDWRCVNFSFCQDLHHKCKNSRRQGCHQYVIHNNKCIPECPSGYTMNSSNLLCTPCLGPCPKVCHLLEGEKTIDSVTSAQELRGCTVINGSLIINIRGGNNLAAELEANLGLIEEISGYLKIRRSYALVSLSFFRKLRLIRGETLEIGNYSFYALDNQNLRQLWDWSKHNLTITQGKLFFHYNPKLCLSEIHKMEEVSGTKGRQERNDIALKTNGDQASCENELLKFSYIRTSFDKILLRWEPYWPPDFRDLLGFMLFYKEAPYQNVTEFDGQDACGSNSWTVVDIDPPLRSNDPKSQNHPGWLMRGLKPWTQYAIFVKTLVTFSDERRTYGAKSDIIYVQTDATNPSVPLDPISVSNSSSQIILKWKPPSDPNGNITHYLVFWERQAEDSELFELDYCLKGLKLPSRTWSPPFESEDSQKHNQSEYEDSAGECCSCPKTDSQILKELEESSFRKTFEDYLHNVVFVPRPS
Chain of human insulin receptor (P06213 763-1382 partner limits assumed): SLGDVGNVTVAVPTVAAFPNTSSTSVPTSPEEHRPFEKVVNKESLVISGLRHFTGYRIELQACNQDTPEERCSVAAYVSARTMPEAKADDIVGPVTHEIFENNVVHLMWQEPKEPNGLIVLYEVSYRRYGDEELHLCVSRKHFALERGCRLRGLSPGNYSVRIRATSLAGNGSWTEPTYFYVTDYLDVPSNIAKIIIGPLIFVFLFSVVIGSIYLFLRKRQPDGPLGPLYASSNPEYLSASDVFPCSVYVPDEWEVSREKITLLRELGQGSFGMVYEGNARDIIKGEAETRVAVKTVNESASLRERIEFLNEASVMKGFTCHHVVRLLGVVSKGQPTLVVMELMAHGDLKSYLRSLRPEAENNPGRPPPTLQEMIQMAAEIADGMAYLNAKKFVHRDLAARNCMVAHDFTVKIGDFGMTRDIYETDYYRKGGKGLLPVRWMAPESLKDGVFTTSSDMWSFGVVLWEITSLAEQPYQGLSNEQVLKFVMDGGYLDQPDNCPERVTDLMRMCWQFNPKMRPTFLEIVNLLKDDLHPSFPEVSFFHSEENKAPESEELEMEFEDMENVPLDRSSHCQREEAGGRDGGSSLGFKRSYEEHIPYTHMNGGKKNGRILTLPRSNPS
The affinity of the acylated, single-chain insulins for the human insulin receptor can be determined by a SPA assay (Scintillation Proximity Assay) microtiterplate antibody capture assay. SPA-PVT antibody-binding beads, anti-mouse reagent (Amersham Biosciences, Cat No. PRNQ0017) are mixed with 25 ml of binding buffer (100 mM HEPES pH 7.8; 100 mM sodium chloride, 10 mM MgSO4, 0.025% Tween-20). Reagent mix for a single Packard Optiplate (Packard No. 6005190) is composed of 2.4 μl of a 1:5000 diluted purified recombinant human insulin receptor—exon 11, an amount of a stock solution of A14 Tyr[125I]-human insulin corresponding to 5000 cpm per 100 μl of reagent mix, 12 μl of a 1:1000 dilution of F12 antibody, 3 ml of SPA-beads and binding buffer to a total of 12 ml. A total of 100 μl is then added and a dilution series is made from appropriate samples. To the dilution series is then added 100 μl of reagent mix and the samples are incubated for 16 hours while gently shaken. The phases are then separated by centrifugation for 1 min and the plates counted in a Topcounter. The binding data are fitted using the nonlinear regression algorithm in the GraphPad Prism 2.01 (GraphPad Software, San Diego, Calif.).
For “B(1-29)-B22K(N(eps)hexadecandioyl-gGlu)-B29A-VGLSSGQ-A(1-21)-A18Q Human Insulin [Example 3]”, the “insulin receptor binding relative to that of human insulin” value was found to be 64%.

With “B(1-29)-B22K((eps)hexadecandioyl-gGlu)-B29Q-TGLGSGR-A(1-21)-A18Q-A21G Human insulin [Example 5]”, the “insulin receptor binding relative to that of human insulin” value is 154%.

As for “B(1-29)-B22K((eps)myristoyl)-B29A-VGLSSGQ-A(1-21)-A18Q Human Insulin [Example 1]”, the “insulin receptor binding relative to that of human insulin” value was determined as 46%.

Turning to “B(1-29)-B22K(N(eps)heptadecandioyl-g-L-Glu)-B29H-TGLGSGR-A(1-21)-A18Q-A21G Human insulin [Example 8]”, the “insulin receptor binding relative to that of human insulin” value was found to be 53%.

Consider “B(1-29)-B22K((eps)hexadecandioyl-gGlu)-B29H-TGLGSGR-A(1-21)-A18Q-A21G Human insulin [Example 4]”, for which the “insulin receptor binding relative to that of human insulin” value was 46%.

With “B(1-29)-B22K(N(eps)heptadecandioyl)-B29H-TGLGSGR-A(1-21)-A18Q-A21G Human insulin [Example 7]”, the “insulin receptor binding relative to that of human insulin” value was 119%.

For “B(1-29)-B22K(N(eps)hexadecandioyl-g-L-Glu-amide)-B29H-TGLGSGR-A(1-21)-A18Q-A21G Human insulin [Example 6]”, the “insulin receptor binding relative to that of human insulin” value is 105%.

With “B(1-29)-B22K(N(eps)octadecandioyl)-B29A-VGLSSGQ-A(1-21)-A18Q Human Insulin [Example 2]”, the “insulin receptor binding relative to that of human insulin” value turned out to be 16%.

The target in a further assay is purified recombinant human insulin receptor-exon 11 (human) (UniProt P06213). The experiment in a line: assay (I): SPA competition, displacement of A14 Tyr[125I]-human insulin from recombinant human insulin receptor; reference human insulin.
Chain of purified recombinant human insulin receptor-exon 11 (human) (P06213 other isoform, or with tags, fused parts or gaps limits assumed, form in doubt): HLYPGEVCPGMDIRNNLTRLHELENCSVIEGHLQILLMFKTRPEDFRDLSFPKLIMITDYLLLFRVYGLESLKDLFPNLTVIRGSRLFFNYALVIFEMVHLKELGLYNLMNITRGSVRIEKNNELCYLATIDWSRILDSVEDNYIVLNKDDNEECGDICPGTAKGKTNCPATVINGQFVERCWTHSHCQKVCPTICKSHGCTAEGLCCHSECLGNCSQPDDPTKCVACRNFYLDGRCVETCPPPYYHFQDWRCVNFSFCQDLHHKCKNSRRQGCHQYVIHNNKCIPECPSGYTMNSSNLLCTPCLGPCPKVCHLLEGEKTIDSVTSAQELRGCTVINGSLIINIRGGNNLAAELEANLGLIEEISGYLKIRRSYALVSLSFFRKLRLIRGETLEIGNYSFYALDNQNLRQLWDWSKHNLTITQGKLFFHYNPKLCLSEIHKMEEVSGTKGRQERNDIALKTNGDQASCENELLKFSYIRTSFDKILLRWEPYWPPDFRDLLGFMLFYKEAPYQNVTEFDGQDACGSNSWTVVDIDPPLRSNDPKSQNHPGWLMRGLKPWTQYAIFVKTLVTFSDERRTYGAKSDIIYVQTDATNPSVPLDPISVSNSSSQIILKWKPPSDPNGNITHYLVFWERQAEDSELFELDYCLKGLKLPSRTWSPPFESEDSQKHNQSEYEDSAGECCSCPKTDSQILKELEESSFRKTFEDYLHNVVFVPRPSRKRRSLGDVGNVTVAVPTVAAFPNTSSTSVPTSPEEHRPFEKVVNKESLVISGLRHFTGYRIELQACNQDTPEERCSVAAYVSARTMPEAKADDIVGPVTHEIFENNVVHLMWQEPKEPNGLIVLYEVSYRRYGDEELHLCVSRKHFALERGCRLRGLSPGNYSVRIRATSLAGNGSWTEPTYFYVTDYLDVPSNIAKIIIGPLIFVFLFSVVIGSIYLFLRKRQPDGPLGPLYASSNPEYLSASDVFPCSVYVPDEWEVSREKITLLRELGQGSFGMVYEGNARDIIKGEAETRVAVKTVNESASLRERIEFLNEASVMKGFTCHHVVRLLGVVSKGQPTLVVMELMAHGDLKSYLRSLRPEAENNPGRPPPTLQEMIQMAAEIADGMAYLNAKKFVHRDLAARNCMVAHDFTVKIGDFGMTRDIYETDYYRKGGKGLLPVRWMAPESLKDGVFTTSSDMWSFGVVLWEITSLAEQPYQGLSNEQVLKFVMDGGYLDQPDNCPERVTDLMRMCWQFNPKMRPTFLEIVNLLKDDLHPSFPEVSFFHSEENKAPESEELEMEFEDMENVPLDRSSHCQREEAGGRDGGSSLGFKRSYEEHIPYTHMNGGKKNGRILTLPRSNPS
Conditions: not given
With “B(1-29)-B22K((eps)myristoyl)-B29A-VGLSSGQ-A(1-21)-A18Q Human Insulin (from UniProt P01308 25-53; P01308 90-110) (ligand)”, the insulin receptor binding relative to that of human insulin turned out to be 46%.

In the case of “B(1-29)-B22K(N(eps)hexadecandioyl-g-L-Glu-amide)-B29H-TGLGSGR-A(1-21)-A18Q-A21G Human insulin (from UniProt P01308 25-53; P01308 90-110) (ligand)”, the insulin receptor binding relative to that of human insulin amounted to 105%.

Take “B(1-29)-B22K(N(eps)heptadecandioyl-g-L-Glu)-B29H-TGLGSGR-A(1-21)-A18Q-A21G Human insulin (from UniProt P01308 25-53; P01308 90-110) (ligand)”: the insulin receptor binding relative to that of human insulin is 53%.

On to “B(1-29)-B22K((eps)hexadecandioyl-gGlu)-B29H-TGLGSGR-A(1-21)-A18Q-A21G Human insulin (from UniProt P01308 25-53; P01308 90-110) (ligand)”, for which the insulin receptor binding relative to that of human insulin was 46%.

As for “B(1-29)-B22K(N(eps)heptadecandioyl)-B29H-TGLGSGR-A(1-21)-A18Q-A21G Human insulin (from UniProt P01308 25-53; P01308 90-110) (ligand)”, the insulin receptor binding relative to that of human insulin came out at 119%.

As to “B(1-29)-B22K((eps)hexadecandioyl-gGlu)-B29Q-TGLGSGR-A(1-21)-A18Q-A21G Human insulin (from UniProt P01308 25-53; P01308 90-110) (ligand)”, the insulin receptor binding relative to that of human insulin was determined as 154%.

Consider “B(1-29)-B22K(N(eps)octadecandioyl)-B29A-VGLSSGQ-A(1-21)-A18Q Human Insulin (from UniProt P01308 25-53; P01308 90-110) (ligand)”, for which the insulin receptor binding relative to that of human insulin is 16%.

In the case of “B(1-29)-B22K(N(eps)hexadecandioyl-gGlu)-B29A-VGLSSGQ-A(1-21)-A18Q Human Insulin (from UniProt P01308 25-53; P01308 90-110) (ligand)”, the insulin receptor binding relative to that of human insulin was determined as 64%.
